Experimental data taken from US20220280661A1, “GLUCOCORTICOID RECEPTOR RADIOLIGANDS AND METHODS FOR THEIR PREPARATION AND USE” (The Regents of the University of California, priority 2019, published 2022).

Experiments:
GR [1] = assay: Immunoblot of GR in mouse tissues after JG231 treatment; format: in vivo; settings: 4 mg/kg/day for three days intraperitoneally
Description: GR levels were not impacted in liver, kidneys, or muscle, as predicted based on the radiotracer biodistribution data.
(§1) The limitations of broad-spectrum GR modulators like corticosteroids are well known, and the severe side effects associated with their long term use (e.g. diabetes mellitus, osteoporosis) motivated drug development campaigns starting in the 1990s to identify safer GR modulators that selectively modulate GR activity (Sundahl, et al. Pharmacol. Ther. 2015, 152, 28-41). […] To test this concept, the biodistribution of ^18F-YJH08 was evaluated in mice after treatment with JG231 (FIGS. 10A and 10B). […] Using the same treatment strategy, mice were subjected to 4 mg/kg/day for three days intraperitoneally, and subsequently treated with ^18F-YJH08. […] In these regions, it appeared that JG231 suppressed radiotracer binding, perhaps indicative of GR degradation. […] Immunoblot studies corroborated the biodistribution data, showing approximately ˜50% reduction in GR expression levels due to JG231 treatment in brown fat, and no change in GR levels from other tissues, for example, kidneys, liver, and muscle (FIG. 10E). This is believed to be the first example of tissue specific GR degradation.

GR [2] = assay: Immunoblot of GR in breast cancer cell lines treated with JG231; format: cell-based, human; settings: 24 hours
Description: Cells were treated with the indicated dose for 24 hours.

GR [3] = assay: 18F-YJH08 PET/biodistribution after JG231 treatment; format: in vivo, mouse; settings: once daily for 3 days via intraperitoneal injection
Description: At right is shown a maximum intensity projection of supraspinal BAT and muscle from a representative mouse in either treatment arm. Mice (n=5/treatment arm) were treated with JG231 or vehicle once daily for 3 days via intraperitoneal injection.
The biodistribution data are representative of two independent experiments.
as §1, with “This is believed to be the first example of tissue specific GR degradation.” left out

Structure (SMILES): CCn1c(=O)/c(=C2\Sc3cc(Cl)ccc3N2C)s/c1=C\c1scc[n+]1Cc1ccc(Br)s1.[Cl-] [JG231, 3-((5-bromothiophen-2-yl)methyl)-2-((Z)-((E)-5-(6-chloro-3-methylbenzo[d]thiazol-2(3H)-ylidene)-3-ethyl-4-oxothiazolidin-2-ylidene)methyl)thiazol-3-ium chloride]
- GR levels in kidneys, liver, and muscle (GR [1]): no change
- reduction in GR expression levels in brown fat (GR [1]): ~50%
- GR degradation (immunoblot), MCF7 (GR [2]; MCF7 cells): degrades GR
- GR degradation (immunoblot), MDA MB 231 (GR [2]; MDA MB 231 cells): degrades GR
- effect on ^18F-YJH08 tissue uptake (GR [3]): suppressed radiotracer uptake exclusively in the supraspinal brown fat pad
